From paper PMC8717867, “The Oxidation Cascade of a Rare Multifunctional P450 Enzyme Involved in Asperterpenoid A Biosynthesis” (Frontiers in Chemistry, 2021) come the findings set out here.

T1 sequence (I6WXK4 whole entry, looked up): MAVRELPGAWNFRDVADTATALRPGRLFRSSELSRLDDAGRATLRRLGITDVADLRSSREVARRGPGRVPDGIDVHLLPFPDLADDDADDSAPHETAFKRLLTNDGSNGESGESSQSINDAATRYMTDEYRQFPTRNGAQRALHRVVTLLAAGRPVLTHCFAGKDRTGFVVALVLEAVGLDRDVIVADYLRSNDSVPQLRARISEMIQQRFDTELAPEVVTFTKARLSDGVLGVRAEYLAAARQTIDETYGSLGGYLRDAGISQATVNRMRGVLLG

This assay concerns the target T1, mPTPB (Mycobacterium tuberculosis protein tyrosine phosphatase B) (Mycobacterium tuberculosis, UniProt I6WXK4).
T1 construct: gene ptpB
Put plainly: biochemical. On the set-up: mPTPB phosphatase inhibition, pNPP substrate, absorbance at 405 nm. The settings on record: read-out: 50 uM inhibition rate (%).
Broadly, the inhibition is the percentage by which the read-out fell short of the control. For `CC(C)[C@H]1CC[C@@]2(C)CC[C@]3(CO)CC4=C(C(=O)O)CC[C@H]4[C@]4(C)C[C@@H]4[C@H]3[C@H]12` [asperterpenoid A], the inhibition at 50 µM is 98.2%.

Regarding `CC(C)[C@H]1CC[C@@]2(C)CC[C@]3(C(=O)O)CC4=C(C(=O)O)CC[C@H]4[C@]4(C)C[C@@H]4[C@H]3[C@H]12` [asperterpenoid B], the inhibition at 50 µM was found to be 98.9%.

With `CC(C)[C@H]1C[C@@H](O)[C@@]2(C)CC[C@]3(CO)CC4=C(C(=O)O)CC[C@H]4[C@]4(C)C[C@@H]4[C@H]3[C@H]12` [asperterpenoid C], the inhibition at 50 µM was 45.1%.

Regarding `CC(C)C1CCC2(C)CCC3(C)CC4=C(C(=O)O)CCC4C4(C)CC4C3C12` (stereo not shown) [compound 1, asperterpenoid D], the inhibition at 50 µM is 52.8%.

Consider `CC(C)C1CCC2(C)CCC3(C)CC4=C(CO)CCC4C4(C)CC4C3C12` (stereo not shown) [compound 2, asperterpenoid E], for which the inhibition at 50 µM was 46.8%.

`CC(C)C1CCC2(C)CCC3(CO)CC4=C(CO)CCC4C4(C)CC4C3C12` (stereo not shown) [compound 3, asperterpenoid F]: the inhibition at 50 µM was determined as 48%.

In the case of `CC1=C2C[C@@]3(C)CC[C@]4(C)CC[C@H](C(C)C)[C@H]4[C@@H]3[C@H]3C[C@@]3(C)[C@@H]2CC1` [preasperterpenoid A], the inhibition at 50 µM was 31.1%.
